From ChEMBL document CHEMBL1151392, “Structure-activity relations of polyfunctional diterpenes of the daphnane type. I. Revised structure for resiniferatoxin and structure-activity relations of resiniferonol and some of its esters” (J Nat Prod, 1982)

Tests used:
[1] = organism: Mus musculus; assay: Toxicity in NMRI mouse assessed as irritant dose 50 causing ear redness after 5 hours assessed per ear; format: organism-based; details: in vivo, topical_or_ocular
[2] = organism: Mus musculus; assay: Toxicity in NMRI mouse assessed as irritant dose 50 causing ear redness after 24 hours assessed per ear; format: organism-based; details: in vivo

For `COC(=O)Cc1ccc(O)c(OC)c1`, which Activity [1] is on record?
Its Activity is 25 nmol.

What about the Activity [2] of the same compound?
The Activity was greater than 100 nmol.

What does the source list for `C=C(C)[C@]12C[C@@H](C)[C@@]34O[C@](C)(O[C@@H]1[C@@H]3C=C(COC(=O)Cc1cc(OC)cc(OC)c1)C[C@]1(O)C(=O)C(C)=C[C@@H]41)O2`?
Activity [1]: 2.6 ×10⁻² nmol; Activity [2]: > 5 nmol

How did the Activity [1] turn out when `C=C(C)[C@]12C[C@@H](C)[C@@]34O[C@](Cc5ccccc5)(O[C@@H]1[C@@H]3C=C(COC(=O)CCCCC)C[C@]1(O)C(=O)C(C)=C[C@@H]41)O2` was run?
Its Activity is 8.9 ×10⁻² nmol.

And the Activity [2]?
The Activity was greater than 10 nmol.

How did the Activity [1] turn out when `C=C(C)[C@]12C[C@@H](C)[C@@]34O[C@](CCCCCCCCCCCCC)(O[C@@H]1[C@@H]3C=C(CO)C[C@]1(O)C(=O)C(C)=C[C@@H]41)O2` was run?
Its Activity is greater than 30 nmol.

What about the Activity [2] of the same compound?
Its Activity is 0.8 nmol.

Which Activity [1] does the source give for `C=C(C)[C@]12C[C@@H](C)[C@@]34O[C@](Cc5ccccc5)(O[C@@H]1[C@@H]3C=C(COC(=O)Cc1cc(OC)cc(OC)c1)C[C@]1(O)C(=O)C(C)=C[C@@H]41)O2` here?
Its Activity is 6.2 ×10⁻⁴ nmol.

What about the Activity [2] of the same compound?
Its Activity is greater than 20 nmol.

Which results are given for `C=C(C)[C@]12C[C@@H](C)[C@@]34O[C@](Cc5ccccc5)(O[C@@H]1[C@@H]3C=C(CO)C[C@]1(O)C(=O)C(C)=C[C@@H]41)O2`?
Activity [1]: 1 nmol; Activity [2]: > 20 nmol

With `C=C(C)[C@]1(O)C[C@@H](C)[C@@]2(O)[C@@H](C=C(COC(=O)Cc3ccccc3)C[C@]3(O)C(=O)C(C)=C[C@@H]23)[C@H]1O` as the compound, how does the Activity [1] read?
The Activity was greater than 100 nmol.

And the Activity [2]?
The Activity was greater than 100 nmol.

`C=C(C)[C@]12C[C@@H](C)[C@@]34O[C@](Cc5ccccc5)(O[C@@H]1[C@@H]3C=C(COC(C)=O)C[C@]1(O)C(=O)C(C)=C[C@@H]41)O2` was tested. Which Activity [1] did it give?
Its Activity is greater than 10 nmol.

What about the Activity [2] of the same compound?
The Activity was greater than 10 nmol.

With `C=C(C)[C@]12C[C@@H](C)[C@@]34O[C@](CCCCCCCCCCCCC)(O[C@@H]1[C@@H]3C=C(COC(=O)Cc1cc(OC)cc(OC)c1)C[C@]1(O)C(=O)C(C)=C[C@@H]41)O2` as the compound, how does the Activity [1] read?
The Activity was greater than 5 nmol.

And the Activity [2]?
The Activity was greater than 5 nmol.

For `C=C(C)[C@]12C[C@@H](C)[C@@]34O[C@](CCCCCCCCCCCCC)(O[C@@H]1[C@@H]3C=C(COC(=O)CCCCCCCCCCCCC)C[C@]1(O)C(=O)C(C)=C[C@@H]41)O2`, which Activity [1] is on record?
Its Activity is greater than 60 nmol.

What about the Activity [2] of the same compound?
Its Activity is greater than 60 nmol.

Which results are given for `C=C(C)[C@]12C[C@@H](C)[C@@]34O[C@](Cc5ccccc5)(O[C@@H]1[C@@H]3C=C(COC(=O)Cc1ccccc1)C[C@]1(O)C(=O)C(C)=C[C@@H]41)O2`?
Activity [1]: 1.7 ×10⁻³ nmol; Activity [2]: > 10 nmol

How did the Activity [1] turn out when `C=C(C)[C@]12C[C@@H](C)[C@@]34O[C@](Cc5ccccc5)(O[C@@H]1[C@@H]3C=C(COC(=O)c1ccccc1)C[C@]1(O)C(=O)C(C)=C[C@@H]41)O2` was run?
Its Activity is 1.2 ×10⁻² nmol.

And the Activity [2]?
The Activity was greater than 10 nmol.

`C=C(C)[C@]12C[C@@H](C)[C@@]34O[C@](C)(O[C@@H]1[C@@H]3C=C(CO)C[C@]1(O)C(=O)C(C)=C[C@@H]41)O2` was tested. Which Activity [1] did it give?
Its Activity is greater than 100 nmol.

What about the Activity [2] of the same compound?
The Activity was 12.9 nmol.

Which results are given for `C=C(C)[C@]12C[C@@H](C)[C@@]34O[C@](Cc5ccccc5)(O[C@@H]1[C@@H]3C=C(COC(=O)Cc1ccc(OC)c(OC)c1)C[C@]1(O)C(=O)C(C)=C[C@@H]41)O2` [RESINIFERATOXIN METHYL ETHER]?
Activity [1]: 4.7 ×10⁻⁴ nmol; Activity [2]: > 20 nmol

For `C=C(C)[C@]12C[C@@H](C)[C@@]34O[C@](Cc5ccccc5)(O[C@@H]1[C@@H]3C=C(COC(=O)Cc1ccc(O)c(OC)c1)C[C@]1(O)C(=O)C(C)=C[C@@H]41)O2` [RESINIFERATOXIN], which Activity [1] is on record?
Its Activity is 1.6 ×10⁻⁵ nmol.

And the Activity [2]?
The Activity was greater than 20 nmol.

How did the Activity [1] turn out when `C=C(C)[C@]1(O)C[C@@H](C)[C@@]2(O)[C@@H](C=C(CO)C[C@]3(O)C(=O)C(C)=C[C@@H]23)[C@H]1O` [RESINIFERONOL] was run?
The Activity was greater than 100 nmol.

What about the Activity [2] of the same compound?
Its Activity is greater than 100 nmol.
